According to patent EP4793279A1, “COMPOUND AND METHOD FOR TREATING AND/OR […] KERATOSIS” (priority 2023, dated 2025):
Where two headings read alike, the source gives them in different places.

Tests used:
[1] = for plasma drug concentrations above the LLOQ: topical gel, dose levels 1-5, LLOQ 0.02 ng/mL
[2] = in water
[3] = 20 °C
[4] = for Labeled amount / Related substances Impurity A / Related substances Impurity B / Related substances Impurity C / Related substances Impurity D / Related substances Impurity E / Related substances Impurity F / Related substances RRT0.73 / Related substances RRT1.10 / Related substances RRT2.18 / Related substances Total impurities: mixed 1:5 with CMC-Na
[5] = test system: human liver cancer HepG2 cells; conditions: cited from earlier work
[6] = test system: experimental autoimmune encephalomyelitis (EAE); conditions: in vivo; cited from earlier work
beclin1 = beclin1 (Homo sapiens, UniProt Q14457); conditions: targets beclin1; cited from earlier work
Chain of beclin1 (Q14457 whole entry, species assumed): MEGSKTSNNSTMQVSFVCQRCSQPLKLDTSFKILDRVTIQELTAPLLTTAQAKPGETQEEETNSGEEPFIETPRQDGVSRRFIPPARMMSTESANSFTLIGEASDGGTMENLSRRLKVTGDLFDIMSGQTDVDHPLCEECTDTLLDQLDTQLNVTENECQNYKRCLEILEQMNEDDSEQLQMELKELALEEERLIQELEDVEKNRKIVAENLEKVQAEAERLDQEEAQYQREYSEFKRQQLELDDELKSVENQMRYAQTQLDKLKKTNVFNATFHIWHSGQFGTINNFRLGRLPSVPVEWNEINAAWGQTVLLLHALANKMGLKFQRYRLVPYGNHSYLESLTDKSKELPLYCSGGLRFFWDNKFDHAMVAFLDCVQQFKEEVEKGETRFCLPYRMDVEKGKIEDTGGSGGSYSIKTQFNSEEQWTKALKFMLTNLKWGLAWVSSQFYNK

[7] = High humidity for 10 days (RH 90%±5%)
[8] = High temperature for 10 days (60°C±2°C)

CO[C@H]1[C@H](O)[C@H](O[C@H]2CC[C@@]3(C)[C@H](CC[C@@H]4[C@@H]3CC[C@]3(C)[C@@H](C5=CC(=O)OC5)CC[C@]43O)C2)O[C@@H](C)[C@@H]1O [17β-neriifolin]
systemic exposure, dose dependence ([1]; 0.008-0.06 mg/cm^2 dose range): No dose-dependent increase | plasma drug concentrations above the LLOQ ([1]; four Australian subjects): 0.021 to 0.101 ng/mL | plasma drug concentrations above the LLOQ ([1]; seven Chinese subjects): 0.022 to 0.106 ng/mL | water solubility [2]: about 70 µg/mL | Dissolution behavior ([3]; Ethanol concentration 50 %, sample concentration 24 mg/g): Dissolved | Dissolution behavior ([3]; Ethanol concentration 66 %, sample concentration 32 mg/g): Dissolved | Dissolution behavior ([3]; Ethanol concentration 75 %, sample concentration 40 mg/g): Dissolved | Dissolution behavior ([3]; Ethanol concentration 100 %, sample concentration 50 mg/g): Dissolved | stability of the combination ([4]; combination with sodium carboxymethyl cellulose compared with combination with Carbomer): significantly superior | impact on the related substances and drug content ([4]; combined 1:5 with sodium carboxymethyl cellulose, high temperature, high humidity, illumination, 10 days): no impact | Labeled amount ([4]; 0 days): 99.56% | Related substances Impurity A ([4]; 0 days): 0.17% | Related substances Impurity B ([4]; 0 days): 0.36% | Related substances Impurity C ([4]; 0 days): 0.25% | Related substances Impurity D ([4]; 0 days): 0.13% | Related substances Impurity E ([4]; 0 days): 0.15% | Related substances Impurity F ([4]; 0 days): 0.14% | Related substances RRT0.73 ([4]; 0 days): 0.05% | Related substances RRT1.10 ([4]; 0 days): 0.04% | Related substances RRT2.18 ([4]; 0 days): 0.03% | Related substances Total impurities ([4]; 0 days): 1.32% | Labeled amount [4, 7]: 99.42% | Related substances Impurity A [4, 7]: 0.17% | Related substances Impurity B [4, 7]: 0.36% | Related substances Impurity C [4, 7]: 0.25% | Related substances Impurity D [4, 7]: 0.13% | Related substances Impurity E [4, 7]: 0.15% | Related substances Impurity F [4, 7]: 0.14% | Related substances RRT0.73 [4, 7]: 0.05% | Related substances RRT1.10 [4, 7]: 0.04% | Related substances RRT2.18 [4, 7]: 0.03% | Related substances Total impurities [4, 7]: 1.32% | Labeled amount [4, 8]: 100.95% | Related substances Impurity A [4, 8]: 0.17% | Related substances Impurity B [4, 8]: 0.36% | Related substances Impurity C [4, 8]: 0.25% | Related substances Impurity D [4, 8]: 0.13% | Related substances Impurity E [4, 8]: 0.15% | Related substances Impurity F [4, 8]: 0.14% | Related substances RRT0.73 [4, 8]: 0.05% | Related substances RRT1.10 [4, 8]: 0.04% | Related substances RRT2.18 [4, 8]: 0.03% | Related substances Total impurities [4, 8]: 1.32% | Labeled amount ([4]; Strong light for 10 days): 99.96% | Related substances Impurity A ([4]; Strong light for 10 days): 0.17% | Related substances Impurity B ([4]; Strong light for 10 days): 0.36% | Related substances Impurity C ([4]; Strong light for 10 days): 0.25% | Related substances Impurity D ([4]; Strong light for 10 days): 0.13% | Related substances Impurity E ([4]; Strong light for 10 days): 0.15% | Related substances Impurity F ([4]; Strong light for 10 days): 0.14% | Related substances RRT0.73 ([4]; Strong light for 10 days): 0.05% | Related substances RRT1.10 ([4]; Strong light for 10 days): 0.04% | Related substances RRT2.18 ([4]; Strong light for 10 days): 0.03% | Related substances Total impurities ([4]; Strong light for 10 days): 1.32% | cell cycle arrest and apoptosis [5]: induce cell cycle arrest and apoptosis

CO[C@H]1[C@H](O)[C@H](O[C@H]2CC[C@@]3(C)[C@H](CC[C@@H]4[C@@H]3CC[C@]3(C)[C@@H](C5=CC(=O)OC5)CC[C@]43O)C2)O[C@@H](C)[C@@H]1O [neriifolin]
progression of experimental autoimmune encephalomyelitis (EAE) [6]: ameliorate the progression | formation of LC3-associated phagosomes (beclin1): inhibit the formation of LC3-associated phagosomes
